Source: patent EP0383919A1, “STAUROSPORIN DERIVATIVES” (KYOWA HAKKO KOGYO CO., LTD., priority 1988, dated 1989)
Converted amounts (≈) assume the structure as drawn. Where two headings read alike, the source gives them in different places.

How the values were obtained:
[1] = molecular target: T1, Protein kinase A (Bos taurus, UniProt P00517); experiment: biochemical; conditions: crude enzyme partially purified from the calf heart, histone type IIS, c-AMP
T1 construct: a crude enzyme (partially purified from the calf heart by the method of Kuo et al.); from tissue; host or cells: calf heart
Protocol: (2) Protein kinase A inhibition assay:
Then, the same procedure as the above-described protein kinase C inhibition assay is carried out to calculate IC50.

[2] = test system: HeLa S3 cells; experiment: HeLa S3 cell growth inhibition assay; type: cell-based; conditions: for IC50: Homo sapiens, HeLa S3, 72 h, read-out: IC50 HeLa S3
Protocol: (1) HeLa S3 cell growth inhibition assay:
A suspension of HeLa S3 cells (3 x 10^4 cells/ml) in MEM containing 10% fetal serum and 2 mM glutamine is distributed in 0.1 ml portions into the wells of a 96-well microtiter plate and incubated overnight in a C02 incubator at 37°C. Then, 0.05 ml portions of an appropriately diluted solution of the test compound are added. The cells are further cultured in the C02 incubator and the culture supernatant is discarded. After washing with PBS (-) once, 0.1 ml portions of fresh medium are added to the wells and the incubation is continued in the C02 incubator at 37°C for 72 hours. After the culture supernatant is discarded, 0.1 ml portions of culture medium containing 0.02% neutral red are added to the respective wells and the microtiter plate is incubated in the C02 incubator at 37°C for 1 hour to stain the cells. After removal of the culture supernatant, the plate is washed with physiological saline once and the dye is extracted with 0.001 N HC1/30% ethanol. Then, using a microplate reader, the absorbances at 550 nm are measured.

[3] = test system: CoLo 320DM cells; experiment: CoLo 320DM cell growth inhibition assay; type: cell-based; conditions: Homo sapiens, read-out: IC50 CoLo 320DM
Protocol: (2) CoLo 320DM cell growth inhibition assay:
Then, the same procedure as (1) is followed and the counting of cells is carried out with a microcell counter.

[4] = read-out: IC50 Protein kinase A (converted)
[5] = 50% growth inhibition concentration, neutral red staining, absorbance at 550 nm, 72 hours incubation after washing
[6] = 50% cell growth inhibition concentration, cell counting with a microcell counter

Compound | IC50 [1, 4] | IC50 [2, 5] | further results
COC1C(N(C)C(C)=O)CC2OC1(C)n1c3ccccc3c3c4c(c5c6ccccc6n2c5c31)C(=O)NC4 (stereo not drawn) | 59 nM | – | –
CNC1CC2OC(C)(C1OC)n1c3ccccc3c3c4c(c5c6ccccc6n2c5c31)C(=O)NC4OC (single isomer, unassigned) [Compound 16] | 383 nM | – | IC50 HeLa S3 [2, 5]: 0.20 µg/mL (≈ 0.403 µM)
CNC1CC2OC(C)(C1OC)n1c3ccccc3c3c4c(c5c6ccccc6n2c5c31)C(=O)NC4OC (single isomer, unassigned) [Compound 17] | 242 nM | 0.16 µg/mL (≈ 0.322 µM) | –
COC1C(N(C)C=O)CC2OC1(C)n1c3ccccc3c3c4c(c5c6ccccc6n2c5c31)C(=O)NC4 (stereo not drawn) [Compound 3] | 20200 nM | – | –
CNC1CC2OC(C)(C1OC)n1c3ccccc3c3c4c(c5c6ccccc6n2c5c31)C(=O)N(C=O)C4 (stereo not drawn) [Compound 4] | – | 0.18 µg/mL (≈ 0.364 µM) | IC50 [3, 6]: 0.19 µg/mL (≈ 0.384 µM)
CNC1CC2OC(C)(C1OC)n1c3ccccc3c3c4c(c5c6ccccc6n2c5c31)C(=O)N(N)C4=O (stereo not drawn) [Compound 5] | – | – | IC50 [3]: 0.59 µg/mL (≈ 1.19 µM); IC50 [2]: 0.75 µg/mL (≈ 1.51 µM)
COC1C(N(C)C(=O)CN)CC2OC1(C)n1c3ccccc3c3c4c(c5c6ccccc6n2c5c31)C(=O)NC4 (stereo not drawn) [Compound 10] | – | 0.051 µg/mL (≈ 0.0974 µM) | IC50 [3, 6]: 0.55 µg/mL (≈ 1.05 µM)
CNC1CC2OC(C)(C1OC)n1c3ccccc3c3c4c(c5c6ccccc6n2c5c31)C(=O)NC4OC (stereo not drawn) [Compound 11] | 322 nM | 0.17 µg/mL (≈ 0.342 µM) | IC50 [3, 6]: 0.14 µg/mL (≈ 0.282 µM)
COC1C(N(C)C(C)=O)CC2OC1(C)n1c3ccccc3c3c4c(c5c6ccccc6n2c5c31)C(=O)NC4=O (stereo not drawn) [Compound 13] | 68.9 nM | – | –
CNC1CC2OC(C)(C1OC)n1c3ccccc3c3c4c(c5c6ccccc6n2c5c31)C(=O)N(C)C4=O (stereo not drawn) [Compound 14] | – | – | IC50 [3]: > 1 µg/mL; IC50 [2]: 0.78 µg/mL (≈ 1.58 µM)
CNC1CC2OC(C)(C1OC)n1c3ccccc3c3c4c(c5c6ccccc6n2c5c31)C(=O)NC4=O (stereo not drawn) [Compound 15] | – | – | IC50 ([1]; IC50 Protein kinase A): 27.1 nM
CNC1CC2OC(C)(C1OC)n1c3ccccc3c3c4c(c5c6ccccc6n2c5c31)C(=O)NC4OC(C)C (stereo not drawn) [Compound 18] | – | 0.29 µg/mL (≈ 0.553 µM) | –
CCCCOC1NC(=O)c2c1c1c3ccccc3n3c1c1c2c2ccccc2n1C1CC(NC)C(OC)C3(C)O1 (stereo not drawn) [Compound 19] | – | – | IC50 [2]: 0.32 µg/mL (≈ 0.594 µM)
CCOC1NC(=O)c2c1c1c3ccccc3n3c1c1c2c2ccccc2n1C1CC(NC)C(OC)C3(C)O1 (stereo not drawn) [Compound 20] | – | 0.29 µg/mL (≈ 0.568 µM) | –
CN[C@@H]1C[C@H]2O[C@@](C)([C@@H]1OC)n1c3ccccc3c3c4c(c5c6ccccc6n2c5c31)C(=O)N[C@@H]4O [UCN-01, reference compound] | – | – | IC50 ([1]; IC50 Protein kinase A): 41.4 nM; IC50 [2]: 0.17 µg/mL (≈ 0.352 µM)
